Data published in patent US12398087B2, “Methods of making bempedoic acid and compositions of the same” (Esperion Therapeutics, Inc., priority 2019, dated 2025).

Assays:
[1] = Water sorption by dynamic vapor sorption; type: physicochemical; settings: crystalline form; relative humidity of 80%, temperature of 25° C.
Protocol: The crystalline form of the compound of formula (V) may also be characterized according to its water sorption properties. […] In certain embodiments, the crystalline form of the compound of formula (V) has a water sorption isotherm, when measured at 25° C., substantially the same as shown in FIG. 6.

[2] = Thermogravimetric analysis (TGA); type: physicochemical; settings: crystalline form; heated at 10° C./minute from ~25° C. to about 315° C.
Protocol: Thermogravimetric analysis (TGA) data for the crystalline form of the compound of formula (V) were collected using a TA Discovery 550 TGA instrument. The TGA instrument was calibrated using a nickel reference standard. Samples of the crystalline form of the compound of formula (V) were placed in open platinum sample pans and heated at a rate of 10° C./minute from about ambient temperature (˜ 25° C.) to about 315° C.

change in mass, as determined by dynamic vapor sorption [1]: about 0.03%
Compound: CC(C)(CCCCCC(O)CCCCCC(C)(C)C(=O)O)C(=O)O [compound of formula (V), 8-hydroxy-2,2,14,14-tetramethylpentadecanedioic acid]
weight loss in TGA curve [2]: negligible weight loss prior to decomposition occurring
